# Read-outs that look alike come from different tables or passages of the source.
# Assays:
# cancer cells = assay: Efficiency of drug combination at killing cancer cells; assay type: cell-based; conditions: FIG. 4; efficiency from LC50 ratios
# human endo-exonuclease = assay: Endo-exonuclease nuclease activity inhibition assay; assay type: biochemical
# Description: The cultured cells were detached with trypsin-EDTA and the cell suspensions were centrifuged at 4° C. with a force of 700 g for 10 minutes. The cell pellets were washed twice with cold phosphate buffered saline (PBS). The cells were then resuspended and sonicated in 20 mM Tris-HCl, pH 7.5, containing 5 mM EDTA and 1 mM PMSF (buffer A). The resulting cell lysis suspensions were centrifuged at 4° C. at 10,000 g for 15 min. […] After washing extensively with buffer A, (i.e. until the A280 of the eluates were zero), the column was then eluted with buffer A containing 3.5 M MgCl2 to elute the endo-exonuclease. The eluted endo-exonuclease was dialyzed extensively against buffer A with at least two changes of buffer and one change of distilled water. The endo-exonuclease was then concentrated by lyophilization.
# One unit of activity was defined as the amount of deoxyribonuclease that renders 1 μg of DNA acid-soluble in 30 min at 37° C. For the inhibition assay with the drugs, the drugs were added to the endo-exonuclease prior to the start of the nuclease reaction.
# H460 NSCLC cells = assay: cells; conditions: Homo sapiens, read-out: LC50
# [1] = Toxicity / maximal tolerable dose in non-tumour bearing mice; conditions: 100 mg/Kg ip, days 1, 3, 5, FIG. 8
# Description: A preliminary study was conducted on non-tumour bearing mice to examine the maximal tolerable doses of pentamidine that can be used for antitumour studies. Three intraperitoneal injections (day 1, day 3, and day 5) were tested of 25, 50, 100 and 200 mg/Kg of body weight respectively.
# HeLa cells = assay: Cell survival, clonogenic assay; assay type: cell-based, human; conditions: 1 week growth
# [2] = test system: Lewis lung carcinoma (M47) lung metastases; assay: Lewis lung carcinoma lung metastases; assay type: in vivo, mouse (C57BL/10); conditions: for Number of Metastases/Lung: Blank 34 ± 3
# Excerpt: All animals were inoculated at the same site.
# Tumour growth was monitored over time. […] Tumours, organs or both were removed under sterile conditions. Tumours were weighed.
# Animals were subjected to surgery to remove the primary tumour. The mice were lightly anesthetized with Forane. The skin overlying the tumour was cleaned with betadine and ethanols, in a laminar flow hood. A small skin incision (0.5–1 cm) was made using a sterile scalpel, and the tumour was carefully separated from the normal tissues (skin and muscle). Lewis Lung carcinoma cells (at early stage of growth; 1–3 weeks) are a well localized tumour and separation was easy to achieve without any significant damage to normal tissues. The tumour was removed, weighed and in some cases fixed for histopathology purposes. The wound was closed with surgical stainless steel clips (Autoclips; 9 mm; Clay Adams, Inc. Parsippany, N.J.). This site was further disinfected with betadine and the animal was housed as described earlier.
# In this group, mice were randomized after surgery into a group of 5 per cage. Cages were randomly assigned to specific experimental groups. The mice were then labelled by numbers using the “ear punching” method. Mice were checked on a daily basis to ensure the absence of infection. Animals with discomfort were sacrificed immediately. For each experiment, an additional extra spared group of control mice was included to determine the optimal timing for sacrifice in order to obtain a significant number of well localized lung metastases. This group was subjected to the same experimental procedure as group 1 with the exception of drug treatment.
# The pentamidine and cisplatinum were injected by intraperitoneal injections. Adriamycin was injected intravenously.
# At the end of each experiment (a total of 5–8 weeks), animals were sacrificed by dislocation and autopsied. Tumours, organs or both were removed under sterile conditions [using a laminar flow hood]. Tumours were weighed. […] Lungs were fixed in 10% Bouin's fixative diluted in a formalin solution, and lung surface metastases were counted using a stereomicroscope at 4× magnification or a magnifying-glass, and in some cases lungs were embedded in paraffin wax according to standard procedures. Embedded tissues were used to confirm metastases and further examine histopathological changes.
structure (smiles),measurement,setting,value
"N=C(N)c1ccc(OCCCCCOc2ccc(C(=N)N)cc2)cc1 [Pentamidine, pentamidine]",Efficiency at killing cancer cells of cisplatin combined with pentamidine versus cisplatin alone,cancer cells,"up to 16,000 times"
same,Percent of Inhibition of endo-exonuclease activity,human endo-exonuclease; 25 μM,37%
same,Percent of Inhibition of endo-exonuclease activity,human endo-exonuclease; 50 μM,50%
same,Percent of Inhibition of endo-exonuclease activity,human endo-exonuclease; 100 μM,100%
same,CC50,"H460 NSCLC cells; NCI-H460, 48 h",1340 µM
same,CC50,"H460 NSCLC cells; NCI-H460, 96 h",160 µM
same,Acute toxicity (death),[1],died because of acute toxicity
same,Concentration at which compound began to kill the cancer cells,HeLa cells,0.1 mM
same,Lethal concentration,HeLa cells,1 mM
same,Number of Metastases/Lung,[2]; 25 mg/kg,23 ± 3
same,Inhibition of lung metastases versus saline-treated control,"[2]; 50 mg/Kg, p<0.001, FIG. 16",more than 50%
same,Number of Metastases/Lung,[2]; 50 mg/kg,10 ± 2
same,"Effect on metastases, 50 mg/Kg/ip pentamidine with 4 mg/kg/ip cisplatin",[2]; FIG. 17,enhanced effect
same,"Effect on metastases, 50 mg/Kg/ip pentamidine with 5 mg/kg adriamycin/iv",[2]; FIG. 20,some beneficial effect
same,Effect on lung metastases,[2]; doses of 10–25 mg/Kg,no significant effect
same,Reduction of lung metastases,[2]; highest dosage tested,reduced metastases in a dose dependant manner by a factor of three
same,Most active dose on lung metastases,[2]; p<0.01,50 mg/kg
